Like-named read-outs stand apart in the source and are kept apart here.
What was measured:
SARS-CoV-2 nsp13 = SARS-CoV-2 nsp13 (Severe acute respiratory syndrome coronavirus 2, UniProt P0DTD1); format: binding
[1] = biological target: T1, SARS-CoV-2 helicase (nsp13) (Severe acute respiratory syndrome coronavirus 2, UniProt P0DTD1)
[2] = biological target: T1, SARS-CoV-2 helicase (nsp13); details: read-out: IC50 for unwinding activity
[3] = 100 nM nsp13, compound at 1 μM, 10 nM probe

`Nc1nc2nc[nH]c2c(=S)[nH]1` [6-TG, 6-thioguanine] was tested, and the “fluorescence intensity of BODIPY FL ATP-γ-S with nsp13” value (“fluorescence intensity” for short) (SARS-CoV-2 nsp13; [3]) was “did not observe any apparent decrease in the fluorescence intensity”.

For `Nc1ccc([O-])c(=O)cc1.Nc1ccc([O-])c(=O)cc1.Nc1ccc([O-])c(=O)cc1.[Bi+3]` [Bi(Tro-NH2)3, Bi(5-aminotropolonate)3], the “fold lower ATPase IC50 than that of Bi(NAC)3” value [1] was “over 30 fold”, the IC50 ([1]; read-out: IC50 for ATPase) was 0.03 µM and the IC50 [2] was 0.36 ± 0.02 µM.

For `N[C@@H](CCC(=O)N[C@@H](CS)C(=O)NCC(=O)O)C(=O)O` [GSH, glutathione], the “fluorescence intensity” value (SARS-CoV-2 nsp13) was “did not observe any apparent decrease in the fluorescence intensity”.

With `CC(C)c1cccc(=O)c(O)c1` [Hino, hinokitiol] the “fluorescence intensity” value (SARS-CoV-2 nsp13; [3]) was “did not observe any apparent decrease in the fluorescence intensity”.

`CC(=O)N[C@@H](CS)C(=O)O` [NAC, N-acetyl cysteine] was tested, and the “fluorescence intensity” value (SARS-CoV-2 nsp13; [3]) was “did not observe any apparent decrease in the fluorescence intensity”.

For colloidal bismuth subcitrate [CBS], the “fluorescence intensity” value (SARS-CoV-2 nsp13) was “decreased fluorescence intensities”.
